Bounds are passed on as bounds.

Assay [1] has as its system HUVEC. Kind of assay: HUVEC assay, basal endothelial cell proliferation. Type of assay: cell-based. To be noted: Homo sapiens, read-out: IC50 for inhibition of basal endothelial cell proliferation.
Assay [2] concerns HUVEC. The experiment in a line: HUVEC assay, VEGF-stimulated endothelial cell proliferation. The assay is classed as cell-based. The note with it: Homo sapiens, read-out: IC50 for inhibition of VEGF-stimulated endothelial cell proliferation.
A further assay relates to Calu-6 tumour xenograft. The experiment in a line: Calu-6 tumour xenograft in vivo solid tumour model. To be noted: once-daily oral, 28 days.
Another assay relates to range of models. Kind of assay: anti-tumour activity in a range of models. To be noted: once-daily oral administration. Type of assay: in vivo.

With `COc1cc2c(Oc3ccc4[nH]c(C)cc4c3F)ncnc2cc1OCCCN1CCCC1` [AZD2171, 4-(4-fluoro-2-methyl-1H-indol-5-yloxy)-6-methoxy-7-(3-(pyrrolidin-1-yl)propoxy)quinazoline], the IC50 in the assay on HUVEC [1] is greater than 500000 pM; in the assay on HUVEC [2] it was 400 ± 200 pM. Moreover, the “inhibition of growth of Calu-6 tumour xenograft” value in the assay on Calu-6 tumour xenograft (1.5 mg/kg/day, P<0.01) came out at 49%; with Calu-6 tumour xenograft (3 mg/kg/day, P<0.0001) it was 69%; in the assay on Calu-6 tumour xenograft (6 mg/kg/day, P<0.0001) it was 91%. Further, in the assay on range of models, the anti-tumour activity entry is on record as “broad-spectrum anti-tumour activity”.

The values above are taken from patent US20070135462A1, “Combination therapy” (priority 2004, published 2007).
